This is an account of results in PubChem BioAssay AID463180 (University of Pittsburgh Molecular Library Screening Center, 2010).

Calls of active or inactive are those of the source. How the calls were made is not given here.

What is called inhibition is the relative decrease from the control value, in per cent.

The target in this experiment is Furin (Homo sapiens) (UniProt P09958). Put plainly: human furin protease inhibitors, confirmation, biochemical, fluorescence intensity (AID 463180). The note with it: Recombinant furin, fluorogenic substrate cleavage, at 50 µM, stronger effect = higher value.
Furin (Homo sapiens), sequence (P09958 108-714 limits assumed): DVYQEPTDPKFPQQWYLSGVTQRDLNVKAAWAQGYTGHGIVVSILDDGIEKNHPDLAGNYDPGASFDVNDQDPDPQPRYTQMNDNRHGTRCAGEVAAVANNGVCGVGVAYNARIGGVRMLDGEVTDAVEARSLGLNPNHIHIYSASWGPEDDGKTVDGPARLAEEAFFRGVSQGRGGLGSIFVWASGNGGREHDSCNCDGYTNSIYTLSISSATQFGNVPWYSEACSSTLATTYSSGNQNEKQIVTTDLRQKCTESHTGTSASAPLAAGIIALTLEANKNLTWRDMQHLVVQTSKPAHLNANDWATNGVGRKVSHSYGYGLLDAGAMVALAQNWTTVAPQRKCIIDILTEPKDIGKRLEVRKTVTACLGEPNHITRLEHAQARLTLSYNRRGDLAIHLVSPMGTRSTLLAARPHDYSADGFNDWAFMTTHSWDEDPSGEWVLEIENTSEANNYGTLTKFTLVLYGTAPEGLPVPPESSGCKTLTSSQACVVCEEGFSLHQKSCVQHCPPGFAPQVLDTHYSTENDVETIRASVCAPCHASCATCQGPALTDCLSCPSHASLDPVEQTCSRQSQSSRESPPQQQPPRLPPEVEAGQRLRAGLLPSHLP
`Cc1cccc(/C=C2/S/C(=N/N=C3\CC4CCC3(C)C4(C)C)NC2=O)c1` (stereo not given): the inhibition was 12.3%. Under `OC(CNCC1CCCO1)Cn1c2ccc(Br)cc2c2cc(Br)ccc21` (stereo not given) stands -2.62% (inactive); under `CC1(C)CC(=O)C(/C=N/c2ccccn2)=C(O)C1`, 2.22% (inactive).

Turning to `Cc1c(NC(=O)c2ccc(Cl)c(S(=O)(=O)N3CCOCC3)c2)c(=O)n(-c2ccccc2)n1C`, the inhibition is -23.3% (inactive).

Regarding `CCCOc1ccc(C2NC(=O)NC2=O)cc1` (stereo not given), the inhibition was -10.8% (inactive). With `O=C(Cc1c[nH]c2ccccc12)N1CCc2ccccc21` the figure was -24.6% (inactive); with `Cc1ccc(SCCCCN2C(=O)NC(C)(C)C2=O)cc1`, -8.35% (inactive); with `CCOC(=O)C(CC)Sc1nnc(COc2ccc(C)cc2)n1-c1ccccc1` (stereo not given), -0.94% (inactive). With `CCCCCC(=O)N(CN1C(=O)CCC1=O)c1ccccc1` the figure was -20.9% (inactive). Under `N#CC1=C(N)NC(SCc2ccc(Br)cc2)=C(C#N)C12CCCCC2` stands -6.5% (inactive); under `CC(=O)Nc1cc(-c2ccc(Cl)cc2)nn1-c1ccccc1`, -20% (inactive). Turning to `CCOC(=O)C(C(=O)NCC1CCCO1)C1CCCCC1` (stereo not given), the inhibition is -17.6% (inactive).

As to `O=C1CC(=C2c3ccccc3-c3ccccc32)C(=O)N1CCCCN1CCN(c2ccccc2)CC1`, the inhibition was 9.51% (inactive).

On to `CC1(C)CC(=O)C(C=Nc2cccnc2/N=C/C2=C(O)CC(C)(C)CC2=O)=C(O)C1`, for which the inhibition was 0.675% (inactive). Under `Cc1nc(SCc2ccc(O)c([N+](=O)[O-])c2)n[nH]1` stands 0.762% (inactive); under `COC(=O)C1C(=O)/C(=C/N(C)C)C(=O)CC1(C)C` (stereo not given), 4.91% (inactive); under `O=C(COC(=O)c1ccc[nH]c1=O)NCC1CCCO1` (stereo not given), -31.2% (inactive). Under `CCC(Sc1ncccc1C(=O)O)C(=O)N1CCCC1` (stereo not given) stands -20.2% (inactive); under `CCCCN1CCC(O)(c2ccccc2)C(C(=O)c2ccccc2)C1` (stereo not given), -20.5% (inactive). With `COC(=O)COc1ccc(S(=O)(=O)NCC2CCCO2)cc1Cl` (stereo not given) the figure was -21.4% (inactive). For the compound `O=C(CN1C(=O)C2C3C=CC(C3)C2C1=O)NCc1ccc2c(c1)OCO2` (stereo not given), the inhibition was -17.4% (inactive). Under `CC1(C)CC(=O)C(C=Nc2cccnc2)=C(O)C1` stands 21.6%; under `COc1cc(C(=O)Nc2ccc(-c3nnc(-c4ccco4)o3)cc2)cc(OC)c1OC`, -21% (inactive); under `CCOC(=O)c1cc(C)sc1/N=C/C1C(=O)CCCC1=O`, -15.3% (inactive).

`CCN1CCS/C1=C\C=C\C1=[N+](CC)CCS1`: the inhibition was 63.4%. With `COc1ccc(S(=O)(=O)Nc2cc(C(C)C)c(O)cc2C)cc1`, the inhibition was -20.4% (inactive). Under `CNC(=O)C1CC(=O)N(CCc2ccc(OC)cc2)C(=Nc2ccc(OC)cc2)S1` (stereo not given) stands -13.8% (inactive).

Consider `O=C(CCN1C(=O)c2ccccc2C1=O)N(CCO)Cc1ccccc1`, for which the inhibition was -16.7% (inactive).

As to `O=C1CC(N2CCC(c3nc4ccccc4o3)CC2)C(=O)N1Cc1cccs1` (stereo not given), the inhibition is -13.2% (inactive). With `COc1cccc(-n2nnc3c(=O)n(Cc4ccccc4Cl)cnc32)c1` the figure was -14.9% (inactive); with `CCNC(=O)C1CC(=O)N(Cc2ccc3c(c2)OCO3)C(=Nc2ccc(F)cc2)S1` (stereo not given), -9.04% (inactive). For the compound `O=C(c1ccco1)N1CCN(C2CC(=O)N(c3ccc4c(c3)OCO4)C2=O)CC1` (stereo not given), the inhibition is -17% (inactive). Under `Cc1ccc(-n2nc3cc(C)c(NC(=O)c4cccnc4)cc3n2)cc1` stands -15.7% (inactive); under `COc1cc(/C=C/C(=O)OCC(=O)NC(=O)NC(C)C)ccc1O`, 3.94% (inactive); under `COc1nc(C)ccc1-c1noc(-c2ccccn2)n1`, -16.6% (inactive). `CC1(C)CC(=O)C(/C=N/n2cnc3ccccc3c2=O)=C(O)C1`: the inhibition was 7.64% (inactive). Under `CN1CCN(c2ccccc2NC(=O)c2cccc(OCc3ccccc3)c2)CC1` stands -16% (inactive); under `CSc1n[nH]c(NCc2ccc(C)cc2)n1`, -16.7% (inactive); under `COc1ccc(N=CC2=C(O)CC(C)(C)CC2=O)cc1`, 8.92% (inactive). Under `COc1ccc(C(=O)NCCN2CCOCC2)cc1OC` stands -19.6% (inactive); under `Cc1cccc(/N=C/C2=C(O)CC(C)(C)CC2=O)n1`, 13.1%; under `O=C(C1Cc2ccccc2CN1S(=O)(=O)c1cccs1)N1CCCCC1` (stereo not given), -7.18% (inactive).

For the compound `COc1cc(S(=O)(=O)Nc2ncccc2C)c(OC)cc1Cl`, the inhibition is -4.1% (inactive). Regarding `Cc1cc(N=CC2=C(O)CC(C)(C)CC2=O)no1`, the inhibition was -1.24% (inactive).

`COc1ccc(/C=N/n2c(=O)[nH]c3c([nH]c4ccc(C)cc43)c2=O)cc1CN1CCOCC1`: the inhibition is -14% (inactive). With `COC(=O)c1ccc(NC2(C#N)C(=O)Nc3ccccc32)cc1` (stereo not given) the figure was -18.6% (inactive); with `COc1ccc(NC(=O)CSc2nncn2C)cc1OC`, -12.4% (inactive). Under `Cc1ccccc1-n1c(O)c(C=Nc2ccc(N(C)C)cc2)c(=O)[nH]c1=O` stands 20.3%; under `NC(=O)c1ccccc1N/C=C/C(=O)c1ccc(F)cc1`, -9.67% (inactive); under `O=C(CN1C(=O)c2ccccc2C1=O)Nc1sc2c(c1C(=O)NCc1ccco1)CCCC2`, -11.4% (inactive). Under `CC1(C)CC(=O)C(C=Nc2ccc(Cl)cn2)=C(O)C1` stands -4.84% (inactive); under `Cc1cccc(-n2c(O)c(/C=C/C=Nc3ccccc3)c(=O)[nH]c2=O)c1`, 14.2%; under `C=CCn1c(O)c(/C=N/NC(=O)c2ccncc2)c(=O)[nH]c1=O`, 5.98% (inactive). In the case of `CCCCCCN1C=CC=C/C1=C/C=C(C#N)C#N`, the inhibition is 6.58% (inactive). With `Cc1cc(N=CC2=C(O)CCCC2=O)no1` the figure was -4.93% (inactive); with `OC1C2CN3CCN(C2)CC1(Cc1ccccc1)C3` (stereo not given), -20.6% (inactive). Under `COc1ccccc1NC(=O)c1cc(S(=O)(=O)N2CCOCC2)ccc1Cl` stands -16.1% (inactive); under `CCOC(=O)c1cc(C)sc1/N=C/C1=C(O)CCCC1=O`, -5.31% (inactive). Under `Cc1cc(Cl)ccc1OCCCC(=O)N1CCOCC1` stands -18.9% (inactive). Take `O=C(Nc1ccccc1)N(CCN1CCOCC1)Cc1ccccc1F`: the inhibition was -13% (inactive). Under `COc1ccc(NC(=O)Nc2ncn(Cc3cccc(C(F)(F)F)c3)n2)cc1OC` stands -15.8% (inactive); under `CCCCOc1ccc(-c2ncc(Cl)cn2)cc1`, -14.4% (inactive); under `CCSc1ccccc1C(=O)Nc1nncs1`, -22.6% (inactive).

For the compound `CCCCCc1nnc(NC(=O)C2CCCO2)s1` (stereo not given), the inhibition is -22.1% (inactive). With `CCn1c(C)c(CCC(=O)O)c(=O)n2nc(-c3ccccc3OC)cc12` the figure was -22.2% (inactive); with `COc1ccc(S(=O)(=O)NCCC(=O)NCc2ccc(F)cc2)cc1`, -20.3% (inactive). Under `CNc1nc(NCCOC23CC4CC(CC(C4)C2)C3)nc(OCC(F)(F)F)n1` stands -19.7% (inactive); under `CN1/C(=C\C=C2C(=O)NC(=O)NC2=O)C(C)(C)c2ccccc21`, 1.52% (inactive). Under `CCC(C)C(NC(=O)C1CCC(C)CC1)C(=O)NCc1cccnc1` (stereo not given) stands -18.4% (inactive); under `CCCOP(=O)(c1ccc(N(C)C)cc1)C(Nc1ccccc1)c1ccc(N(C)C)cc1` (stereo not given), 31.5%. As to `COc1ccccc1C(=O)NC(C)C(c1cccs1)N1CCOCC1` (stereo not given), the inhibition was -25.9% (inactive). With `CCOC(=O)c1c(/N=C/C2=C(O)CCCC2=O)sc(C)c1C` the figure was -13.1% (inactive). With `COc1cc(NC(=O)c2ccccc2)c(OC)cc1Cl` the figure was -9.8% (inactive); with `Cn1ncc(Cl)c1C(=O)Nc1cccc(Cl)c1`, -11% (inactive). With `O=C1C=C(c2ccc(Cl)cc2)OC2(CCCC2)O1` the figure was -10.7% (inactive). In the case of `COC(=O)c1[nH]c2cc(OC)ccc2c1NC(=O)CCN1CCCCC1`, the inhibition was -14.9% (inactive). With `COC(=O)c1[nH]c2ccccc2c1NC(=O)CN1CCC(C(N)=O)(N2CCCCC2)CC1` the figure was -12.8% (inactive). Under `CCCC(=O)Nc1cccc(Oc2nc(C)cc(C)c2C#N)c1` stands -3.32% (inactive).

With `CCN1CCS/C1=C/C=C/C1=[N+](CC)CCS1`, the inhibition was 61.3%.

As for `CC(=O)NC(C)c1nc2ccccc2n1Cc1ccccc1F` (stereo not given), the inhibition is -16.7% (inactive).

Turning to `CCn1c(SCC(=O)Nc2cc(F)ccc2C)nnc1-c1ccccc1O`, the inhibition was -18.5% (inactive).

As to `CCOC(=O)NC(=O)CSc1nnnn1-c1ccccc1`, the inhibition was -19.1% (inactive). Regarding `COC(=O)c1ccc(Cn2nc(C)c(Cl)c2C)o1`, the inhibition is -14.9% (inactive). As to `O=C(NCc1ccccc1)C1COc2ccccc2O1` (stereo not given), the inhibition is -16.5% (inactive). Under `O=C(COc1ccc(Cl)cc1Cl)NC(=O)N1CCOCC1` stands -20.4% (inactive); under `CCOC(=O)C(CC)Sc1nc2c(c(=O)[nH]c(=O)n2C)n1C/C=C(/C)Cl` (stereo not given), -19.2% (inactive). With `O=C1CC(c2ccccc2)CC(=O)C1=CN1CCCC1` (stereo not given) the figure was 1.13% (inactive); with `CSc1nc(N)c(N=Nc2ccc([As](=O)(O)O)cc2)c(=O)[nH]1`, 15.9%. `Cc1ccc2nc(/C(C#N)=C/c3cn[nH]c3-c3ccc(F)cc3)[nH]c2c1`: the inhibition is 8.39% (inactive). With `CCOC(=O)c1cc(CC)sc1/N=C/C1=C(O)CCCC1=O` the figure was -4.4% (inactive).
